# From patent US12495818B2, “Dihydrochalcones from Balanophora harlandii” (The Coca-Cola Company, priority 2018, dated 2025)
# Tested on: panelists
# Assay: Sweetness enhancement taste panel (Example 2)
# Format: in vivo, human
# Settings: 20 ppm CC-00474 + 250 ppm Rebaudioside M in acidic water (citric acid) vs control of 250 ppm Rebaudioside M and PG; served cold, sip and spit; all panelists agreed
# Procedure: Samples were prepared with the following ingredients:
# CC-00474 in PG was prepared in weighing boat and added to Reb M solution while stirring. The weighing boat was rinsed with Reb M solution. The solution was stirred visibly clear and the sample was poured into a glass bottle and stored at 4° C.
# Bottles were removed from the refrigerator and about 25 ml of beverage was poured into 4 oz-plastic cups. Panelists were given mineral water to rinse their mouth before tasting and between tasting different samples. Unsalted crackers were also given to panelist to eat followed by rinsing their mouth with mineral water before tasting the next sample.
# A sample of Rebaudioside M in acidic water and a sample of CC-00474 and Rebaudioside M in acidic water were given to panelists. Panelists were asked to evaluate the sweetness of samples and describe the difference of taste profile. Panelists were instructed to sip, evaluate the sweetness, and then spit the samples in cups provided for that purpose.
compound,measurement,value
"COc1cc(CCC(=O)c2c(O)cc(O[C@@H]3OC(CO)[C@@H](O)[C@H](O)C3O)cc2O)ccc1O (stereo partly drawn) [CC-00474, 3-methoxyphloretin-4′-O-β-D-glucoside]",sweetness of the sample compared with Rebaudioside M only,sweeter than the sample containing Rebaudioside M only
